Here are results for one compound from publication PMC3605789 (Nature communications, 2013).

In the assay the target is T1, inositol monophosphatase (IMPase) (Homo sapiens, UniProt P29218).
T1 sequence (P29218 1-277): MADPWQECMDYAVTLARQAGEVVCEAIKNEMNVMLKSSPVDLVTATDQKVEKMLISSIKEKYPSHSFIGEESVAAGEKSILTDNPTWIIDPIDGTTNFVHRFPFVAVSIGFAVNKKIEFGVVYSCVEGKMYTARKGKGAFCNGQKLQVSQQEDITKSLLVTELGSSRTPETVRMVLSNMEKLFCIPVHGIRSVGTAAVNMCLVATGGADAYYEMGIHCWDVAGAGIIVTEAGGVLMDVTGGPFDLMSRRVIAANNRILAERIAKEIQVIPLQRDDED
The experiment in a line: electrospray mass spectrometry of the covalent complex. In kind it is biochemical.

Usually IC50 stands for the midpoint of a concentration-inhibition curve. Read a low IC50 as greater potency in that assay. Take `O=c1c2ccccc2[se]n1-c1ccccc1` [ebselen]: inhibition was half-maximal at 1.5 µM (IC50).
